Measured values as given in patent US20120283216A1, “FUNGICIDAL 2-(BICYCLIC ARYLOXY)CARBOXAMIDES” (priority 2009, published 2012).

Legend:
Type in all cases: in vivo
Septoria tritici = assay: Test B: wheat leaf blotch, preventive spray on wheat seedlings, visual disease rating; settings: preventive spray at 40 ppm, rated after 48 h + 19 days; for pest or weed control at 40 ppm: Zymoseptoria tritici, 504 h, read-out: Test B disease control rating (100 = 100% disease control, 0 = no disease control relative to the controls)
From the text: (§1) General protocol for preparing test suspensions for Tests A-C: the test compounds were first dissolved in acetone in an amount equal to 11% of the final volume and then suspended at the desired concentration (in ppm) in acetone and purified water (50/50 mix by volume) containing 250 ppm of the surfactant Trem® 014 (polyhydric alcohol esters). The resulting test suspensions were then used in Tests A-C. Spraying a 40 ppm test suspension to the point of run-off on the test plants was the equivalent of a rate of 800 g/ha. The test suspension was sprayed to the point of run-off on wheat seedlings. The following day the seedlings were inoculated with a spore suspension of Septoria tritici (the causal agent of wheat leaf blotch) and incubated in a saturated atmosphere at 20° C. for 48 h, and then moved to a growth chamber at 20° C. for 19 days, after which time disease ratings were visually made. Results for Tests A-C are given in Table A. In the Table, a rating of 100 indicates 100% disease control and a rating of 0 indicates no disease control (relative to the controls). A dash (-) indicates no test results. All results are from applications of 40 ppm.

[1] = tested on: Blumeria graminis f. sp. tritici; assay: Test A: wheat powdery mildew, preventive spray on wheat seedlings, visual disease rating; settings: preventive spray at 40 ppm, rated 8 days after inoculation; for pest or weed control at 40 ppm: Blumeria graminis, 192 h, read-out: Test A disease control rating (100 = 100% disease control, 0 = no disease control relative to the controls)
From the text: as §1, with “spore dust” for “spore suspension”, “of Blumeria graminis f. sp. tritici,” for “of Septoria tritici”, “wheat powdery mildew)” for “wheat leaf blotch)”, “in” for “in a saturated atmosphere at 20° C. for 48 h, and then moved to”, “for 8” for “for 19”

Botrytis cinerea = assay: Test C: tomato botrytis, preventive spray on tomato seedlings, visual disease rating; settings: preventive spray at 40 ppm, rated after 48 h + 3 days; for pest or weed control at 40 ppm: Botrytis cinerea, 120 h, read-out: Test C disease control rating (100 = 100% disease control, 0 = no disease control relative to the controls)
From the text: General protocol for preparing test suspensions for Tests A-C: the test compounds were first dissolved in acetone in an amount equal to 11% of the final volume and then suspended at the desired concentration (in ppm) in acetone and purified water (50/50 mix by volume) containing 250 ppm of the surfactant Trem® 014 (polyhydric alcohol esters). The resulting test suspensions were then used in Tests A-C. Spraying a 40 ppm test suspension to the point of run-off on the test plants was the equivalent of a rate of 800 g/ha.
The test suspension was sprayed to the point of run-off on tomato seedlings. The following day the seedlings were inoculated with a spore suspension of Botrytis cinerea (the causal agent of tomato botrytis) and incubated in saturated atmosphere at 20° C. for 48 h, and then moved to a growth chamber at 27° C. for 3 additional days, after which time disease ratings were visually made.
Results for Tests A-C are given in Table A. In the Table, a rating of 100 indicates 100% disease control and a rating of 0 indicates no disease control (relative to the controls). A dash (-) indicates no test results. All results are from applications of 40 ppm.

## CCCOc1ccc2ccc(OC(CC)C(=O)NC(C)(C)C)cc2c1 (stereo not drawn) [Compound 128]
Septoria tritici
  Test B disease control rating (100 = 100% disease control, 0 = no disease control relative to the controls): 100%
[1]
  Test A disease control rating (100 = 100% disease control, 0 = no disease control relative to the controls): 98%
Botrytis cinerea
  Test C disease control rating (100 = 100% disease control, 0 = no disease control relative to the controls): 99%

## C#CCOc1ccc2ccc(OC(OC)C(=O)NC(C)(C)C#C)cc2c1 (stereo not drawn) [Compound 132]
Septoria tritici
  Test B disease control rating (100 = 100% disease control, 0 = no disease control relative to the controls): 99%
[1]
  Test A disease control rating (100 = 100% disease control, 0 = no disease control relative to the controls): 13%
Botrytis cinerea
  Test C disease control rating (100 = 100% disease control, 0 = no disease control relative to the controls): 100%

## CCC(Oc1ccc2ccc(Br)cc2c1)C(=O)NC1(C)CC1 (stereo not drawn) [Compound 13]
Septoria tritici
  pest or weed control at 40 ppm: 98%
[1]
  pest or weed control at 40 ppm: 50%
Botrytis cinerea
  pest or weed control at 40 ppm: 99%

## C#Cc1ccc2ccc(OC(CC)C(=O)NC(C)(C)C)cc2c1 (stereo not drawn) [Compound 109, N-(1,1-dimethylethyl)-2-[(7-ethynyl-2-naphthalenyl)oxy]butanamide]
Septoria tritici
  pest or weed control at 40 ppm: 100%
[1]
  pest or weed control at 40 ppm: 100%
Botrytis cinerea
  pest or weed control at 40 ppm: 99%

## COCC(Oc1cnc2ccc(Br)cc2c1)C(=O)NC(C)(C)C (stereo not drawn) [Compound 34]
Septoria tritici
  Test B disease control rating (100 = 100% disease control, 0 = no disease control relative to the controls): 92%
[1]
  Test A disease control rating (100 = 100% disease control, 0 = no disease control relative to the controls): 0%
Botrytis cinerea
  Test C disease control rating (100 = 100% disease control, 0 = no disease control relative to the controls): 94%

## CCC(Oc1ccc2ccc(Br)cc2c1)C(=O)NN(C)C (stereo not drawn) [Compound 9]
Septoria tritici
  pest or weed control at 40 ppm: 99%
[1]
  pest or weed control at 40 ppm: 69%
Botrytis cinerea
  pest or weed control at 40 ppm: 99%

## CCOCC(C)(C)NC(=O)C(CC)Oc1cnc2ccc(I)cc2c1 (stereo not drawn) [Compound 55]
Septoria tritici
  Test B disease control rating (100 = 100% disease control, 0 = no disease control relative to the controls): 99%
[1]
  Test A disease control rating (100 = 100% disease control, 0 = no disease control relative to the controls): 96%
Botrytis cinerea
  Test C disease control rating (100 = 100% disease control, 0 = no disease control relative to the controls): 86%

## CCOc1ccc2ccc(OC(OCC)C(=O)NC(C)(C)C#N)cc2c1 (stereo not drawn) [Compound 123]
Septoria tritici
  Test B disease control rating (100 = 100% disease control, 0 = no disease control relative to the controls): 100%
[1]
  Test A disease control rating (100 = 100% disease control, 0 = no disease control relative to the controls): 82%
Botrytis cinerea
  Test C disease control rating (100 = 100% disease control, 0 = no disease control relative to the controls): 98%

## C#CC(C)(C)NC(=O)C(CC)Oc1ccc2ccc(CCC)cc2c1 (stereo not drawn) [Compound 144]
Septoria tritici
  Test B disease control rating (100 = 100% disease control, 0 = no disease control relative to the controls): 93%
[1]
  Test A disease control rating (100 = 100% disease control, 0 = no disease control relative to the controls): 99%
Botrytis cinerea
  Test C disease control rating (100 = 100% disease control, 0 = no disease control relative to the controls): 98%

## CCC(Oc1ccc2ccc(Br)cc2c1)C(=O)NC(C)(C)CN=CN(C)C (stereo not drawn) [Compound 15, 2-[(7-bromo-2-naphthalenyl)oxy]-N-[2-[[(dimethylamino)methylene]amino]-1,1-dimethylethyl]butanamide]
Septoria tritici
  pest or weed control at 40 ppm: 100%
[1]
  pest or weed control at 40 ppm: 43%
Botrytis cinerea
  pest or weed control at 40 ppm: 100%

## COCC(C)(C)NC(=O)C(OC)Oc1cnc2ccc(C#C[Si](C)(C)C)cc2c1 (stereo not drawn) [Compound 160]
Septoria tritici
  Test B disease control rating (100 = 100% disease control, 0 = no disease control relative to the controls): 99%
[1]
  Test A disease control rating (100 = 100% disease control, 0 = no disease control relative to the controls): 69%
Botrytis cinerea
  Test C disease control rating (100 = 100% disease control, 0 = no disease control relative to the controls): 97%

## CCC(Oc1ccc2ccc(OC)cc2c1)C(=O)NC(C)(C)C#N (stereo not drawn) [Compound 87]
Septoria tritici
  Test B disease control rating (100 = 100% disease control, 0 = no disease control relative to the controls): 100%
[1]
  Test A disease control rating (100 = 100% disease control, 0 = no disease control relative to the controls): 0%
Botrytis cinerea
  Test C disease control rating (100 = 100% disease control, 0 = no disease control relative to the controls): 100%

## COCC(C)(C)NC(=O)C(OC)Oc1cnc2ccc(I)cc2c1 (stereo not drawn) [Compound 65]
Septoria tritici
  Test B disease control rating (100 = 100% disease control, 0 = no disease control relative to the controls): 99%
[1]
  Test A disease control rating (100 = 100% disease control, 0 = no disease control relative to the controls): 81%
Botrytis cinerea
  Test C disease control rating (100 = 100% disease control, 0 = no disease control relative to the controls): 100%

## CCC(Oc1cnc2ccc(OC)cc2c1)C(=O)NC(C)(C)COC (stereo not drawn) [Compound 146]
Septoria tritici
  Test B disease control rating (100 = 100% disease control, 0 = no disease control relative to the controls): 100%
[1]
  Test A disease control rating (100 = 100% disease control, 0 = no disease control relative to the controls): 0%
Botrytis cinerea
  Test C disease control rating (100 = 100% disease control, 0 = no disease control relative to the controls): 99%

## C#CC(C)(C)NC(=O)C(CC)Oc1ccc2ccc(CC)cc2c1 (stereo not drawn) [Compound 141]
Septoria tritici
  Test B disease control rating (100 = 100% disease control, 0 = no disease control relative to the controls): 80%
[1]
  Test A disease control rating (100 = 100% disease control, 0 = no disease control relative to the controls): 97%
Botrytis cinerea
  Test C disease control rating (100 = 100% disease control, 0 = no disease control relative to the controls): 100%

## CCC(Oc1cnc2ccc(F)cc2c1)C(=O)NC1(C#N)CC1 (stereo not drawn) [Compound 46]
Septoria tritici
  Test B disease control rating (100 = 100% disease control, 0 = no disease control relative to the controls): 0%
[1]
  Test A disease control rating (100 = 100% disease control, 0 = no disease control relative to the controls): 0%
Botrytis cinerea
  Test C disease control rating (100 = 100% disease control, 0 = no disease control relative to the controls): 0%

## C#Cc1ccc2ncc(OC(OC)C(=O)NC(C)(C)COC)cc2c1 (stereo not drawn) [Compound 162]
Septoria tritici
  Test B disease control rating (100 = 100% disease control, 0 = no disease control relative to the controls): 100%
[1]
  Test A disease control rating (100 = 100% disease control, 0 = no disease control relative to the controls): 100%
Botrytis cinerea
  Test C disease control rating (100 = 100% disease control, 0 = no disease control relative to the controls): 100%

## COC(Oc1cnc2ccc(I)cc2c1)C(=O)NC1(C)CC1 (stereo not drawn) [Compound 64]
Septoria tritici
  Test B disease control rating (100 = 100% disease control, 0 = no disease control relative to the controls): 99%
[1]
  Test A disease control rating (100 = 100% disease control, 0 = no disease control relative to the controls): 84%
Botrytis cinerea
  Test C disease control rating (100 = 100% disease control, 0 = no disease control relative to the controls): 100%

## CC#CC(C)(C)NC(=O)C(CC)Oc1ccc2ccc(CC)cc2c1 (stereo not drawn) [Compound 142]
Septoria tritici
  Test B disease control rating (100 = 100% disease control, 0 = no disease control relative to the controls): 77%
[1]
  Test A disease control rating (100 = 100% disease control, 0 = no disease control relative to the controls): 96%
Botrytis cinerea
  Test C disease control rating (100 = 100% disease control, 0 = no disease control relative to the controls): 93%

## C#CCOc1ccc2ccc(OC(CC)C(=O)NC(C)(C)C)cc2c1 (stereo not drawn) [Compound 134]
Septoria tritici
  Test B disease control rating (100 = 100% disease control, 0 = no disease control relative to the controls): 100%
[1]
  Test A disease control rating (100 = 100% disease control, 0 = no disease control relative to the controls): 43%
Botrytis cinerea
  Test C disease control rating (100 = 100% disease control, 0 = no disease control relative to the controls): 100%

## C#Cc1ccc2ccc(OC(CC)C(=O)NC(C)(C)C#CC)cc2c1 (stereo not drawn) [Compound 111, N-(1,1-dimethyl-2-butyn-1-yl)-2-[(7-ethynyl-2-naphthalenyl)oxy]butanamide]
Septoria tritici
  pest or weed control at 40 ppm: 100%
[1]
  pest or weed control at 40 ppm: 100%
Botrytis cinerea
  pest or weed control at 40 ppm: 100%

## CCCc1ccc2ccc(OC(CC)C(=O)NC(C)(C)COC)cc2c1 (stereo not drawn) [Compound 143]
Septoria tritici
  Test B disease control rating (100 = 100% disease control, 0 = no disease control relative to the controls): 100%
[1]
  Test A disease control rating (100 = 100% disease control, 0 = no disease control relative to the controls): 98%
Botrytis cinerea
  Test C disease control rating (100 = 100% disease control, 0 = no disease control relative to the controls): 99%

## CC#Cc1ccc2ccc(OC(OC)C(=O)NC(C)(C)COC)cc2c1 (stereo not drawn) [Compound 108, 2-methoxy-N-(2-methoxy-1,1-dimethylethyl)-2-[[7-(1-propyn-1-yl)-2-naphthalenyl]oxy]acetamide]
Septoria tritici
  pest or weed control at 40 ppm: 100%
[1]
  pest or weed control at 40 ppm: 100%
Botrytis cinerea
  pest or weed control at 40 ppm: 48%

## COc1ccc2ccc(OC(OC)C(=O)NC(C)(C)C#N)cc2c1 (stereo not drawn) [Compound 81]
Septoria tritici
  Test B disease control rating (100 = 100% disease control, 0 = no disease control relative to the controls): 99%
[1]
  Test A disease control rating (100 = 100% disease control, 0 = no disease control relative to the controls): 0%
Botrytis cinerea
  Test C disease control rating (100 = 100% disease control, 0 = no disease control relative to the controls): 100%

## COCC(C)(C)NC(=O)C(C)Oc1ccc2ccc(C#N)cc2c1 (stereo not drawn) [Compound 25]
Septoria tritici
  Test B disease control rating (100 = 100% disease control, 0 = no disease control relative to the controls): 96%
[1]
  Test A disease control rating (100 = 100% disease control, 0 = no disease control relative to the controls): 47%
Botrytis cinerea
  Test C disease control rating (100 = 100% disease control, 0 = no disease control relative to the controls): 99%

## COCC(C)(C)NC(=O)C(OC)Oc1cnc2ccc(Br)cc2c1 (stereo not drawn) [Compound 154]
Septoria tritici
  Test B disease control rating (100 = 100% disease control, 0 = no disease control relative to the controls): 99%
[1]
  Test A disease control rating (100 = 100% disease control, 0 = no disease control relative to the controls): 91%
Botrytis cinerea
  Test C disease control rating (100 = 100% disease control, 0 = no disease control relative to the controls): 94%
